According to patent publication US7776862B2, “Pyridyl and phenyl substituted piperazine-piperidines with CXCR3 antagonist activity” (Schering Corporation, priority 2005, dated 2010):

The compounds below were run against T1, human CXCR3 (N-delta 4) (Homo sapiens, UniProt P49682) (assay: Human CXCR3 (N-delta 4) scintillation proximity assay (SPA), [125I] IP-10 binding). Settings: IC50 rating; Ba/F3-hCXCR3 (N-delta 4) membranes, 25 pM [125I] IP-10.
T1 construct: CD8 leader; Flag tag; expressed in transfected cells; membranes used
T1 sequence (P49682 5-368 limits assumed): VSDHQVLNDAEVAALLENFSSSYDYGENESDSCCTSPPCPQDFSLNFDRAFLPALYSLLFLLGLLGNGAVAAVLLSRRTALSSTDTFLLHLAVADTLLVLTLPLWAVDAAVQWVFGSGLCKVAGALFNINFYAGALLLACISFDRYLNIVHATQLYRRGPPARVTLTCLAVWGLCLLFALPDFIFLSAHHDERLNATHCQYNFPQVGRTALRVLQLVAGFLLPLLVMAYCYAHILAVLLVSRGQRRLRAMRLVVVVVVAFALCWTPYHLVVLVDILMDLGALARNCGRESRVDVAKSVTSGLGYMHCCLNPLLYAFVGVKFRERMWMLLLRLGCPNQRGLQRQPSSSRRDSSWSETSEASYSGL
Description: The inventive compounds can readily be evaluated to determine activity at the CXCR3 receptors by known methods, such as, for example, development of a human CXCR3 (N-delta 4) Binding Assay.
Cloning and expression of human CXCR3 (N-delta 4):
The DNA encoding human CXCR3 was cloned by PCR using human genomic DNA (Promega, Madison, Wis.) as a template. The PCR primers were designed based on the published sequence of human orphan receptor GPR9 (1) with incorporated restriction sites, a Kozak consensus sequence, CD8 leader and Flag tag. The PCR product was subcloned into the mammalian expression vector pME18Sneo, a derivative of the SR-alpha expression vector (designated as pME18Sneo-hCXCR3 (N-delta 4).
IL-3-dependent mouse pro-B cells Ba/F3 were transfected by electroporation in 0.4 ml Dulbecco's PBS containing 4×10^6 cells with 20 μg of pME18Sneo-hCXCR3 (N-delta 4) plasmid DNA. Cells were pulsed at 400 Volts, 100 OHMs, 960 μFd. The transfected cells were under selection with 1 mg/ml G418 (Life Technologies, Gaithersburg, Md.). […] IP-10 (NEN Life Science Products, Boston, Mass.).
Preparation of Ba/F3-hCXCR3 (N-delta 4) membranes:
Ba/F3 cells expressing human CXCR3 (N-delta 4) were pelleted and resuspended in the lysis buffer containing 10 mM HEPES, pH 7.5 and Complete® protease inhibitors (1 tablet per 100 ml) (Boehringer Mannheim, Indianapolis, Ind.) at a cell density of 20×10^6 cells per ml. […] Large cellular debris was removed by centrifugation at 1,000×g. Cell membrane in the supernatant was sedimented at 100,000×g. The membrane was resuspended in the lysis buffer supplemented with 10% sucrose and stored at −80° C. Total protein concentration of the membrane was determined by BCA method from Pierce (Rockford, Ill.).
Human CXCR3 (N-delta 4) scintillation proximity assay (SPA):
The beads were spun down, washed once, resuspended in the binding buffer and transferred to a 96-well Isoplate (Wallac, Gaithersburg, Md.). […] IP-10 with tested compounds in a series of titration were added to start the reaction.

SMILES	IC50 [nM]
C[C@H]1CN(c2ncc(C(=O)NCc3ccc(F)c(F)c3)cc2Cl)CCN1C1CCN(CCC(=O)c2ccc(Cl)cc2)CC1 [compound 327]	> 100
CC[C@H]1CN(c2ncc(C(=N)NN)cc2Cl)CCN1C1CCN(Cc2ccc(Cl)cc2F)CC1 [compound 426]	25 to 100
CCNC(=O)c1cnc(N2CCN(C3CCN(Cc4ccc(Cl)cc4F)CC3)C(C3CC3)C2)c(Cl)c1 (centres unmarked) [compound 249]	< 25
O=C(NCC1CCCCC1)c1cnc(N2CCN(C3CCN(Cc4ccc(Cl)cc4)CC3)CC2)c(Br)c1 [compound 194]	25 to 100
CC[C@H]1CN(c2ncc(C(=O)NC)cc2Cl)CCN1C1CCN(Cc2ccc(Cl)cc2)CC1 [compound 223]	< 25
C[C@H]1CN(c2ncc(C(=O)Nc3ccc(F)c(F)c3)cc2Cl)CCN1C1CCN(Cc2ccc(Cl)cc2)CC1 [compound 261]	< 25
CC(C)C[C@H]1CN(c2ncc(C(=O)NCC3CCCCC3)cc2Cl)CCN1C1CCN(Cc2ccc(Cl)cc2)CC1 [compound 197]	25 to 100
N#Cc1ccc(C(=O)N2CCC(N3CCN(c4ncc(C(=O)NCc5ccc(F)c(F)c5)cc4Br)CC3)CC2)cc1 [compound 298]	25 to 100
O=C(NCCOc1ccccc1)c1cnc(N2CCN(C3CCN(Cc4ccc(F)c(F)c4)CC3)CC2)c(Cl)c1 [compound 35]	> 100
CCCNC(=O)c1cnc(N2CCN(C3CCN(Cc4ccc(Cl)cc4)CC3)CC2)c(Cl)c1 [compound 192]	> 100
O=C(NCCOc1ccccc1)c1cnc(N2CCN(C3CCN(Cc4ccc(Br)cc4)CC3)CC2)c(Br)c1 [compound 290]	25 to 100
C[C@H]1CN(c2ccc(C(=O)NCc3ccc(F)c(F)c3)cc2Cl)CCN1C1(C)CCN(Cc2ccc(Cl)cc2)CC1 [compound 204]	25 to 100
CCC(=NOC)c1cnc(N2CCN(C3CCN(Cc4ccc(Cl)cc4F)CC3)[C@@H](CC)C2)c(Cl)c1 [compound 455]	> 100
O=C(NCc1ccccc1)c1cnc(N2CCN(C3CCN(Cc4ccc(Cl)c(F)c4)CC3)CC2)c(Cl)c1 [compound 71]	> 100
O=C(NCc1ccc(F)c(Cl)c1)c1cnc(N2CCN(C3CCN(Cc4ccc(Br)cc4)CC3)CC2)c(Cl)c1 [compound 108]	25 to 100
C[C@H]1CN(c2ncc(C(=O)NCc3ccc(Cl)c(Cl)c3)cc2Cl)CCN1C1CCN(C(=O)c2ccc(C#N)cc2)CC1 [compound 266]	< 25
O=C(NCc1ccc(F)cc1F)c1cnc(N2CCN(C3CCN(Cc4ccc(Cl)cc4)CC3)CC2)c(Cl)c1 [compound 97]	25 to 100
CNC(=O)c1cnc(N2CCN(C3CCN(Cc4c(C)cccc4C)CC3)[C@@H](C)C2)c(Cl)c1 [compound 360]	> 100
O=C(NCC1CCCCC1)c1cnc(N2CCN(C3CCN(Cc4ccc(Cl)cc4)CC3)CC2)c(Cl)c1 [compound 184]	25 to 100

SMILES	IC50 [nM]
Cc1cc(NC(=O)c2cnc(N3CCN(C4CCN(Cc5ccc(Cl)cc5)CC4)[C@@H](C)C3)c(Cl)c2)no1 [compound 310]	25 to 100
CC[C@H]1CN(c2ncc(CNC(=O)NCC(F)(F)F)cc2Cl)CCN1C1CCN(Cc2ccc(Cl)cc2F)CC1 [compound 369]	< 25
COc1ccc(CNC(=O)c2cnc(N3CCN(C4CCN(Cc5ccc(C#N)cc5)CC4)CC3)c(Cl)c2)cc1 [compound 345]	> 100
CC[C@H]1CN(c2ncc(C(N)=O)cc2Cl)CCN1C1CCN(Cc2ccc(Cl)cc2F)CC1 [compound 244]	< 25
CC[C@H]1CN(c2ncc(C(=O)N(C)OC)cc2Cl)CCN1C1CCN(Cc2ccc(Cl)cc2F)CC1 [compound 343]	> 100
CC[C@H]1CN(c2ncc(CNC(=O)N(C)C)cc2Cl)CCN1C1CCN(Cc2ccc(Cl)cc2F)CC1 [compound 410]	25 to 100
CC[C@H]1CN(c2ncc(CNC(=O)NC3CC3)cc2Cl)CCN1C1CCN(Cc2ccc(Br)cc2F)CC1 [compound 367]	< 25
N#Cc1ccc(CN2CCC(N3CCN(c4ncc(C(=O)NCc5ccccc5F)cc4Cl)CC3)CC2)cc1 [compound 6]	> 100
Cc1cc(C(=O)NCc2ccc(F)c(F)c2)cnc1N1CCN(C2CCN(Cc3ccc(Cl)cc3)CC2)CC1 [compound 200]	> 100
CC[C@H]1CN(c2ncc(CO)cc2Cl)CCN1C1CCN(Cc2ccc(Br)cc2)CC1 [compound 375]	< 25
CC[C@H]1CN(c2ncc(CO)cc2Cl)CCN1C1CCN(Cc2ccc(Br)cc2F)CC1 [compound 383]	< 25
CC1CN(c2ncc(C(=O)NCc3ccc(F)c(F)c3)cc2Cl)CCN1C1CCN(Cc2ccc(Cl)cc2)CC1 (centres unmarked) [compound 188]	25 to 100
CC(C)C[C@H]1CN(c2ncc(C(=O)NCc3ccc(F)c(F)c3)cc2Cl)CCN1C1CCN(Cc2ccc(Cl)cc2)CC1 [compound 199]	> 100
O=C(NCc1cccc(Cl)c1)c1cnc(N2CCN(C3CCN(Cc4ccc(F)cc4)CC3)CC2)c(Cl)c1 [compound 57]	> 100
O=C(NCc1cc(Cl)cc(Cl)c1)c1cnc(N2CCN(C3CCN(Cc4ccc(F)cc4)CC3)CC2)c(Cl)c1 [compound 77]	> 100
CC[C@H]1CN(c2ncc(C(=O)NC)cc2Cl)CCN1C1CCN(Cc2ccccc2F)CC1 [compound 295]	25 to 100
CC[C@H]1CN(c2ncc(C(=O)NCc3ccc(F)c(F)c3)cc2Cl)CCN1C1CCN(C)CC1 [compound 365]	> 100
O=C(NCc1cccc(F)c1)c1cnc(N2CCN(C3CCN(Cc4ccc(Cl)c(F)c4)CC3)CC2)c(Cl)c1 [compound 296]	25 to 100
CC[C@H]1CN(c2ncc(C(=O)NNC(N)=O)cc2Cl)CCN1C1CCN(Cc2ccc(Cl)cc2F)CC1 [compound 347]	> 100

SMILES	IC50 [nM]
O=C(NCc1ccc(Cl)c(Cl)c1)c1cnc(N2CCN(C3CCN(Cc4ccc(F)c(F)c4)CC3)CC2)c(Cl)c1 [compound 147]	25 to 100
N#Cc1ccc(CN2CCC(N3CCN(c4ncc(C(=O)NCc5ccc(F)cc5F)cc4Cl)CC3)CC2)cc1 [compound 86]	> 100
O=C(NCc1ccc(Br)cc1)c1cnc(N2CCN(C3CCN(Cc4ccc(F)cc4F)CC3)CC2)c(Cl)c1 [compound 67]	> 100
O=C(NCc1ccc(Br)cc1)c1cnc(N2CCN(C3CCN(Cc4ccc(Cl)cc4Cl)CC3)CC2)c(Cl)c1 [compound 11]	> 100
N#Cc1ccc(C(=O)N2CCC(N3CCN(c4ncc(C(=O)NCCOc5ccccc5)cc4Cl)CC3)CC2)cc1 [compound 15]	> 100
O=C(NCc1ccccc1Cl)c1cnc(N2CCN(C3CCN(Cc4ccc(Cl)cc4)CC3)CC2)c(Cl)c1 [compound 166]	> 100
COc1ccc(CN2CCC(N3CCN(c4ncc(C(=O)NCc5ccc(F)c(F)c5)cc4Cl)CC3)CC2)cc1 [compound 116]	25 to 100
O=C(NCc1ccc(Br)cc1)c1cnc(N2CCN(C3CCN(Cc4ccc(F)c(F)c4)CC3)CC2)c(Cl)c1 [compound 99]	25 to 100
CCNC(=O)c1cnc(N2CCN(C3CCN([C@@H](C)c4ccc(Cl)cc4)CC3)[C@@H](C)C2)c(Cl)c1 [compound 294]	25 to 100
CC[C@H]1CN(c2ncc(C(O)c3ncco3)cc2Cl)CCN1C1CCN(Cc2ccc(Cl)cc2F)CC1 (some centres unmarked) [compound 437]	> 100
O=C(NCc1ccc(F)cc1F)c1cnc(N2CCN(C3CCN(Cc4ccc(F)c(F)c4)CC3)CC2)c(Cl)c1 [compound 132]	25 to 100
CC[C@H]1CN(c2ncc(C(=O)NCCO)cc2Cl)CCN1C1CCN(C(CO)c2ccc(Cl)cc2)CC1 (some centres unmarked) [compound 257]	< 25
CCNC(=O)c1cnc(N2CCN(C3CCN([C@H](C)c4ccc(Cl)cc4)CC3)[C@@H](C)C2)c(Cl)c1 [compound 231]	< 25
C[C@H]1CN(c2ncc(C(=O)NCc3ccc(F)c(F)c3)cc2Cl)CCN1C1CCN(Cc2ccc(C#N)cc2)CC1 [compound 234]	< 25
COc1ccc(CN2CCC(N3CCN(c4ncc(C(=O)NCc5ccc(Br)cc5)cc4Cl)CC3)CC2)cc1 [compound 137]	25 to 100
CC[C@H]1CN(c2ncc(C(=O)OC)cc2Cl)CCN1C1CCN(C(=O)c2ccc(Br)cc2)CC1 [compound 454]	> 100
C[C@H]1CN(c2ncc(C(=O)NCC3CCCCC3)cc2Br)CCN1C1CCN(Cc2ccc(Cl)cc2)CC1 [compound 225]	< 25
CC[C@H]1CN(c2ncc(C(=O)OC)cc2Cl)CCN1C1CCN(Cc2ccc(Br)cc2F)CC1 [compound 435]	> 100
